Experimental data taken from article PMC12394658, “Discovery of Zharp1-163 as a dual inhibitor of ferroptosis and necroptosis for the treatment of inflammatory disorders and kidney injury” (Cell Death Discovery, 2025).

Legend:
Test in all cases: biochemical
Design in all cases: Kinase selectivity panel of 81 human kinases, ADP-Glo or HTRF, per cent inhibition at 1 uM
ABL1 = ABL1 (Homo sapiens, UniProt P00519)
Method in brief: (§1)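 Kinase-panel selectivity profiling of 81 kinases with compound at 1000 nM.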

CHK1 = molecular target: T1, CHK1 (Homo sapiens, UniProt O14757)
T1 construct: gene CHEK1
T1 sequence (O14757 whole entry): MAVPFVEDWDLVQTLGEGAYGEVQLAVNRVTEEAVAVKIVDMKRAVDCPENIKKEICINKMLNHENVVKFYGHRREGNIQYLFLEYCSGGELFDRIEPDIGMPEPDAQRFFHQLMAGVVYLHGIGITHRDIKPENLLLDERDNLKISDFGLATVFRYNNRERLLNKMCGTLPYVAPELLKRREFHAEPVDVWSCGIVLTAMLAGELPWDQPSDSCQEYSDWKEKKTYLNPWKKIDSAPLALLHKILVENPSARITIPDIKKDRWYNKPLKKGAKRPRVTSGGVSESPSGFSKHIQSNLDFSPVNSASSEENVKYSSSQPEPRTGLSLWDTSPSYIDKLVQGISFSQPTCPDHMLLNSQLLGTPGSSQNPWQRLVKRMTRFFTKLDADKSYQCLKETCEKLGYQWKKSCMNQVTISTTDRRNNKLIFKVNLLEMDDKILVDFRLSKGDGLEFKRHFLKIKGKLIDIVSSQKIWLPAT
Method in brief: as §1

CHK2 = molecular target: T2, CHK2 (Homo sapiens, UniProt O96017)
T2 construct: gene CHEK2
T2 sequence (O96017 whole entry): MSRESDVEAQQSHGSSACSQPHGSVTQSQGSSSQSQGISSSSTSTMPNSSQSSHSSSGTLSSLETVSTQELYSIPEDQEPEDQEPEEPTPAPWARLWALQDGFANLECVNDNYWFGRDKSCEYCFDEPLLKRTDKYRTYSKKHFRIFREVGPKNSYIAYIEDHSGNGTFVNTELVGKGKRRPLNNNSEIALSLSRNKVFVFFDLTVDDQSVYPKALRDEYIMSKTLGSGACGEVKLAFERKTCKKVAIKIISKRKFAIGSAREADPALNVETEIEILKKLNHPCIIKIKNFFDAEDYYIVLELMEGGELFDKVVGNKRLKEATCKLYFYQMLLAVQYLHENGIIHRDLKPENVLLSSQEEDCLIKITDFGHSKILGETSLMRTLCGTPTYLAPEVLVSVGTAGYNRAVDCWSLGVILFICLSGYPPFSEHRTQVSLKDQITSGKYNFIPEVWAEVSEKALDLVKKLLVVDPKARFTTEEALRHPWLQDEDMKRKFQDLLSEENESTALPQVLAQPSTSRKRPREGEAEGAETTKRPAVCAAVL
Method in brief: as §1

DAPK1 = DAPK1 (Homo sapiens, UniProt P53355)
Sequence of DAPK1 (P53355 whole entry): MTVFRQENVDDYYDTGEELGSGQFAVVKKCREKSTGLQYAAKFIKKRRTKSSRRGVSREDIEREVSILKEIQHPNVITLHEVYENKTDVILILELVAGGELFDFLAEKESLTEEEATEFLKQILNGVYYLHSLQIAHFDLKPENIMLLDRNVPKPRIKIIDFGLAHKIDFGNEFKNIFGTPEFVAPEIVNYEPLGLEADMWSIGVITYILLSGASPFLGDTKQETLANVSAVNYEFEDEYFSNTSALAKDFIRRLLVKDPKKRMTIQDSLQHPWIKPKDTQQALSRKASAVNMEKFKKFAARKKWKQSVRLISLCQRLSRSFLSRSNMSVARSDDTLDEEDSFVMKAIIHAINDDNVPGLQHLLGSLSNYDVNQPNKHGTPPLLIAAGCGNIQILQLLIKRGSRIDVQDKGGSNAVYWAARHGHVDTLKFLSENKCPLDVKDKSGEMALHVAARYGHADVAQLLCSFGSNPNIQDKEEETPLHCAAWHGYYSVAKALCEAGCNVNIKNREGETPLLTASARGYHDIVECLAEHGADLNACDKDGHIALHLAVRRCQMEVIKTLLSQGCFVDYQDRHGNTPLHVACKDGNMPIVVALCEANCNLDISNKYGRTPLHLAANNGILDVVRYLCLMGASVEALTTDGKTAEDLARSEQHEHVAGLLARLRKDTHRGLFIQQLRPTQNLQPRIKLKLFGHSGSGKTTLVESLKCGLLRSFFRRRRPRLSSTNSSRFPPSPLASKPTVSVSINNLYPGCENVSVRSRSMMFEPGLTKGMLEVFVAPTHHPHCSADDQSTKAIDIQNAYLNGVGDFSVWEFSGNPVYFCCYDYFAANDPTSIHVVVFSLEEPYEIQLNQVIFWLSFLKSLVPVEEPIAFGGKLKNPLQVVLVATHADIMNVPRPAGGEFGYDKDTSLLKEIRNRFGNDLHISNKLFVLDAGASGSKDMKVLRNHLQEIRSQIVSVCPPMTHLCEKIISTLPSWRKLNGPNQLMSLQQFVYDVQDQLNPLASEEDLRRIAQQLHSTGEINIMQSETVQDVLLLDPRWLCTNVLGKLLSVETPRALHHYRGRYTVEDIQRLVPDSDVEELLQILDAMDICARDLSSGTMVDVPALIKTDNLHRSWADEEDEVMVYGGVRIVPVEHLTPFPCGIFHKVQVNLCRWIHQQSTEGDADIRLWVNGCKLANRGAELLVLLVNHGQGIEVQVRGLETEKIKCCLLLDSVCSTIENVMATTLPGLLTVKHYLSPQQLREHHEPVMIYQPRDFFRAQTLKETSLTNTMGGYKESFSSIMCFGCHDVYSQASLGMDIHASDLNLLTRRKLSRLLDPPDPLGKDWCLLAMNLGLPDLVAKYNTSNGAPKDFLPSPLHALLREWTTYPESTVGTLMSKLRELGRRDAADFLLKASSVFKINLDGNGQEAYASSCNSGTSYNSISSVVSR
Method in brief: as §1

GSK3β = molecular target: T3, GSK3β (Homo sapiens, UniProt P49841)
T3 construct: gene GSK3B
Method in brief: as §1

HIPK1 = HIPK1 (Homo sapiens, UniProt Q86Z02)
Method in brief: as §1

IGF1R = IGF1R (Homo sapiens, UniProt P08069)
Method in brief: as §1

IRAK4 = IRAK4 (Homo sapiens, UniProt Q9NWZ3)
Sequence of IRAK4 (Q9NWZ3 whole entry): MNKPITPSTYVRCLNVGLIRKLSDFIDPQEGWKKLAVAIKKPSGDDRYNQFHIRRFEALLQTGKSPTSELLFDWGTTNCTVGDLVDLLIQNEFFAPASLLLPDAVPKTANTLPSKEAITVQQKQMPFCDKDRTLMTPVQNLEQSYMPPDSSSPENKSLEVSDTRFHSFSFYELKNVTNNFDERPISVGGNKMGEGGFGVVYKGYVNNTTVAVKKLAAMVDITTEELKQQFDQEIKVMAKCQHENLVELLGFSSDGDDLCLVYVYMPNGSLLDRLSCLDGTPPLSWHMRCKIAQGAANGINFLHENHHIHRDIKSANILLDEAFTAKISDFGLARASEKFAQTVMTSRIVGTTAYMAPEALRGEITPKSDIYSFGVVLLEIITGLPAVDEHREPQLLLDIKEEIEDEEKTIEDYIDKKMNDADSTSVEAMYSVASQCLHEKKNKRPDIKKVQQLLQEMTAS
Method in brief: as §1

KDR = KDR (Homo sapiens, UniProt P35968)
Sequence of KDR (P35968 whole entry): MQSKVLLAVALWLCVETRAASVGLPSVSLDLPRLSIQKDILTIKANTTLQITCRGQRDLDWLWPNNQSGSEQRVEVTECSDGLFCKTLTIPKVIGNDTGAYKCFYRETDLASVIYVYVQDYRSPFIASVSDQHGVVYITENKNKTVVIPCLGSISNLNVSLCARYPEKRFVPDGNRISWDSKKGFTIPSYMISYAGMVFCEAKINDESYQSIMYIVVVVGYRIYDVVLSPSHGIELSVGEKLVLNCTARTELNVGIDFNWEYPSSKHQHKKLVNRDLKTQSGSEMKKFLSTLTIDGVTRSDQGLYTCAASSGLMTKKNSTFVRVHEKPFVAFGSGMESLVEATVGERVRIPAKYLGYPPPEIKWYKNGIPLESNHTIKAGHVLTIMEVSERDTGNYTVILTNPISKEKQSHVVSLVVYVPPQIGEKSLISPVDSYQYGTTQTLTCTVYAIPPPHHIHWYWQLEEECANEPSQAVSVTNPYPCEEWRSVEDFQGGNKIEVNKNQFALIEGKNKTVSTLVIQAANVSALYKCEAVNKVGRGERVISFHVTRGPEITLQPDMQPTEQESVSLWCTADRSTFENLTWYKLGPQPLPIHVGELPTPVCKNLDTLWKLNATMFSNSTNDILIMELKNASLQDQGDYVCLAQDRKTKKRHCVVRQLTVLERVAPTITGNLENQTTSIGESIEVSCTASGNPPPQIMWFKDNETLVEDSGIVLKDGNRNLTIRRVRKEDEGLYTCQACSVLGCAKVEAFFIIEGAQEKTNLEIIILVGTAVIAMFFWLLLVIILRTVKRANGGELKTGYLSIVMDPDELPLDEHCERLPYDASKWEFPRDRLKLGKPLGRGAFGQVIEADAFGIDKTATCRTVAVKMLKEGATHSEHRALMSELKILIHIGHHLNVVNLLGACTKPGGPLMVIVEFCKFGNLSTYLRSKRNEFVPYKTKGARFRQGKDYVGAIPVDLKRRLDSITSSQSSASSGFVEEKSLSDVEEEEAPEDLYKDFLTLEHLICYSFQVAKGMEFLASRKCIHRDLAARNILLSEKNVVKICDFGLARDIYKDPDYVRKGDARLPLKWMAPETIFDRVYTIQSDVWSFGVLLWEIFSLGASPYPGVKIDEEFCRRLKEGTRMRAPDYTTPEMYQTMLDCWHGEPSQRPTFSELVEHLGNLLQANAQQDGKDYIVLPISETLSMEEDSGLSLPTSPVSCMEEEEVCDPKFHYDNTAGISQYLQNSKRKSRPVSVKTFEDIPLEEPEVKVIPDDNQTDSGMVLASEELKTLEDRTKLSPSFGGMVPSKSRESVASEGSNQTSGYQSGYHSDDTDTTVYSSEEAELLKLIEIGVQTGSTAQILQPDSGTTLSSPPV
Method in brief: as §1

MAP3K19 = MAP3K19 (Homo sapiens, UniProt Q56UN5)
Method in brief: as §1

NEK1 = NEK1 (Homo sapiens, UniProt Q96PY6)
Method in brief: as §1

RIPK2 = RIPK2 (Homo sapiens, UniProt O43353)
Method in brief: as §1

SRC = SRC (Homo sapiens, UniProt P12931)
Sequence of SRC (P12931 whole entry): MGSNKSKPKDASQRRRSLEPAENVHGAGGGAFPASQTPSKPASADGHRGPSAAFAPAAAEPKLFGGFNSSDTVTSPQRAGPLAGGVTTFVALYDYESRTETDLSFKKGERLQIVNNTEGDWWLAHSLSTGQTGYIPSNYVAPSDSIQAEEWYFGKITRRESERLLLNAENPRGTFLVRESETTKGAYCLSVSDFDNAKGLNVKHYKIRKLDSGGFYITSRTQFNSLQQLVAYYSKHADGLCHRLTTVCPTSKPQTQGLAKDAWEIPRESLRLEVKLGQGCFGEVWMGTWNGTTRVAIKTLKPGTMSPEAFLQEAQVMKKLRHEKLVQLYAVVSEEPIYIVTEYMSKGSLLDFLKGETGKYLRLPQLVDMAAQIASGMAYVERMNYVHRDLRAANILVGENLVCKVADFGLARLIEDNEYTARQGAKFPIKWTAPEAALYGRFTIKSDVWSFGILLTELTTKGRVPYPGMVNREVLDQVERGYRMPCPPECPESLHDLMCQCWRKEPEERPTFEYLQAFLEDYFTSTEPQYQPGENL
Method in brief: as §1

TGFβR1 = molecular target: T4, TGFβR1 (Homo sapiens, UniProt P36897)
T4 construct: gene TGFBR1
Method in brief: as §1

inhibition at 1 µM (ABL1; replicate Data1): 6.71%
inhibition at 1 µM (ABL1; replicate Data2): 9.11%
inhibition at 1 µM (CHK1; replicate Data1): 16.8%
inhibition at 1 µM (CHK1; replicate Data2): 10.4%
inhibition at 1 µM (CHK2; replicate Data1): 15.8%
inhibition at 1 µM (CHK2; replicate Data2): 1.85%
inhibition at 1 µM (DAPK1; replicate Data1): 9.17%
inhibition at 1 µM (DAPK1; replicate Data2): -5.62%
inhibition at 1 µM (GSK3β; replicate Data1): 11.8%
inhibition at 1 µM (GSK3β; replicate Data2): -2.82%
inhibition at 1 µM (HIPK1; replicate Data1): 8.39%
inhibition at 1 µM (HIPK1; replicate Data2): -1.36%
inhibition at 1 µM (IGF1R; replicate Data1): -8.23%
inhibition at 1 µM (IGF1R; replicate Data2): -5.7%
inhibition at 1 µM (IRAK4; replicate Data1): 8.12%
inhibition at 1 µM (IRAK4; replicate Data2): 17.2%
inhibition at 1 µM (KDR; replicate Data1): -2.59%
inhibition at 1 µM (KDR; replicate Data2): -4.74%
inhibition at 1 µM (MAP3K19; replicate Data1): -4.19%
inhibition at 1 µM (MAP3K19; replicate Data2): 10.2%
inhibition at 1 µM (NEK1; replicate Data1): 4.63%
inhibition at 1 µM (NEK1; replicate Data2): 13.4%
inhibition at 1 µM (RIPK2; replicate Data1): -0.35%
inhibition at 1 µM (RIPK2; replicate Data2): -3.05%
inhibition at 1 µM (SRC; replicate Data1): -5.44%
inhibition at 1 µM (SRC; replicate Data2): -0.43%
inhibition at 1 µM (TGFβR1; replicate Data1): 7.16%
inhibition at 1 µM (TGFβR1; replicate Data2): 7.76%
Compound: Nc1cn2cc(-c3cnc4c(c3)N(C(=O)OC3CCCCC3)CCO4)ccc2n1 [Zharp1-163]
